Read-outs that look alike come from different tables or passages of the source.
How the values were obtained:
[1] = test system: second-instar larvae of tobacco cutworm; assay: whole plant or invertebrate; assay type: in vivo; conditions: foliar
Method: To a mixture of 20 parts of the compound of the present invention and 20 parts of Sorpol SM-200 (registered trademark for the product supplied by Toho Chemical Industrial Co., Ltd.) was added 60 parts of xylol, and the mixture was sufficiently blended. The obtained emulsifiable concentrate was diluted at a predetermined concentration with distilled water, and the obtained dilution was used.
An emulsifiable concentrate of a test compound prepared according to the method described in Formulation Example 1 was diluted to a concentration of 100 or 20 ppm. Among the compounds of the present invention, the following compounds were used as the test compounds: (1), (l ), (3), (4), (6), (8), (9), (10), (11), (14), (15), (16), (17), (18), (19), (20), (21), (24), (27), (28), (29), (30), (33), (34), (35), (36), (38), (39), (40), (41), (42), (43), (47), (48), (50), (51), (52), (53), (54), (55), (56), (59), (60), (62), (63), (64), (65), (66), (67) and (68). Sweetpotato leaves were immersed in the dilution for 10 seconds, air-dried and placed in a plastic cup having a diameter of 10 cm. Then second-instar larvae of tobacco cutworm were set free in the cup. The cup was allowed to stand still in a thermostat chamber maintained at 25° C. After 48 hours, the numbers of killed and living larvae were counted and the mortality was calculated. The obtained result was expressed by an average value obtained from the mortality calculated in three test cups. Compounds of (b), (f) and (h) were tested as comparative compounds in the same manner as the compounds of the present invention.

two-spotted spider mite = assay: Test 6: Effect on Two-Spotted Spider mite adults; assay type: in vivo; conditions: 500 ppm, adults, 24 hours
Summary of the method: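 Kidney bean leaf discs (15 mm) on wet cotton, each holding 10 adult mites, sprayed with 3 ml of a 500 ppm dilution of an emulsifiable concentrate. Kept at 25° C; dead adults counted after 24 hours to give mortality, averaged over three discs.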

[2] = test system: third-instar larvae of diamond back moth; assay: Test 4: Effect on Diamond Back Moth; assay type: in vivo; conditions: Plutella xylostella, 24 hours
Summary of the method: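 Emulsifiable concentrate diluted in water to 100 or 20 ppm and sprayed at 3 ml per cup onto cabbage leaves holding 10 third-instar diamondback moth larvae. Dead and living larvae counted after 24 h; mortality averaged over three cups.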

[3] = test system: sensitive green rice leafhopper (collected at Chigasaki); assay: Test 3: Effect on Sensitive Green Rice Leafhopper; assay type: in vivo; conditions: female adults, 24 hours
Summary of the method: (§1)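 Rice seedlings (2–3 leaves) sprayed with emulsifiable-concentrate dilutions at 100 or 20 ppm, 3 ml per pot, air-dried, then infested with 10 female adults per pot. Mortality counted after 24 h and averaged over three pots.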

[4] = test system: resistant green rice leafhopper (collected at Nakagawara); assay: Test 3: Effect on Resistant Green Rice Leafhopper; assay type: in vivo, Nephotettix cincticeps Uhler; conditions: resistant, female adults, 24 hours
Summary of the method: as §1

male mice = assay: Test 9: Toxicity Test (acute oral, mice); conditions: male mice; oral, corn oil; 7 days
Summary of the method: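 Compound dissolved or suspended in corn oil was given orally to male mice of 19–23 g body weight, at 0.2 ml per 10 g. Deaths and effects were recorded after 7 days.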

yearling carps = assay: Test 8: Fish Toxicity; assay type: in vivo; conditions: 48 hours, concentration at which 1/2 of the test fishes were killed
Method: A water tank having a width of 60 cm, a length of 30 cm and a height of 40 cm was filled with water, and 10 yearling carps having a body length of about 5 cm were set free in the tank and adapted to the environment in the tank. A test compound was applied so that the concentration in water was 10, 1, or 0.1 ppm. After 48 hours, the numbers of killed and living carps were counted and the influences on the fishes were examined.

[5] = 20 ppm, second-instar larvae, 48 hours, read-out: Mortality (%)

COP(=O)(NC(C)=O)SC (stereo not shown) [(h), O,S-dimethyl N-acetylphosphoroamidothiolate]
mortality at 20 ppm ([1]; 48 h): 30% | mortality at 100 ppm ([1]; 48 h): 70%

CC(C)C(COCc1cccc(Oc2ccccc2)c1)c1ccc(Cl)cc1 (stereo not shown) [(b), reference compound]
mortality at 100 ppm ([1]; 48 h): 50% | mortality at 20 ppm [1, 5]: 0% | mortality at 500 ppm (two-spotted spider mite; Tetranychus urticae, read-out: Mortality (%)): 20% | mortality at 20 ppm ([2]; 20 ppm): 10% | mortality at 100 ppm ([2]; 100 ppm): 30%

Pyrethrin [Comparative Compound (c), reference compound]
Mortality (%) (two-spotted spider mite): 0% | Mortality (%) Green Rice Leafhopper Collected at Chigasaki ([3]; 20 ppm): 0% | Mortality (%) Green Rice Leafhopper Collected at Chigasaki ([3]; 100 ppm): 0% | Mortality (%) Green Rice Leafhopper Collected at Nakagawara ([4]; 20 ppm): 0% | Mortality (%) Green Rice Leafhopper Collected at Nakagawara ([4]; 100 ppm): 0% | Acute Toxicity at Oral Administration, LD-50 (male mice): 340 mg/kg

3-phenoxy-α-cyanobenzyl 2,2-dimethyl-3-(2,2-dichlorovinyl)-cyclopropano-1-carboxylate [(i), reference compound]
Fish Toxicity, TLm48 (yearling carps): below 0.005 ppm

CNC(=O)ON=C(C)SC [Comparative Compound (f), S-methyl N-(methylcarbamoyloxy)thioacetoamidate]
mortality at 20 ppm [1, 5]: 80% | mortality at 100 ppm ([1]; 100 ppm, second-instar larvae, 48 hours, read-out: Mortality (%)): 100%
